Assay results reported in US20240002393A1, “SUBSTITUTED BENZO[f][l ,2,4JTRIAZOL0[4,3-a][l ,4J[…] GABA A GAMMA! POSITIVE ALLOSTERIC MODULATORS” (Hoffmann-La Roche Inc., priority 2020, published 2024).
Several values for one entry are separate records, joined by “and”; a condition that tells them apart may be missing. Equal values may be shown once.

Columns and labels:
[1] = target: human GABAA α1β3γ2 receptor (Homo sapiens (Human), UniProt P14867+P18507); assay: Radioligand binding assay, [3H]Flumazenil competition, γ2-containing GABAA subtypes; settings: HEK293F membranes, [3H]Flumazenil 1 nM, mean of two determinations; read-out: Ki h-GABAA α1β3γ2
Summary of the method: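 Competition with [3H]Flumazenil (81.1 Ci/mmol) for binding to HEK293F cells transiently expressing human α1β3γ2 receptors, prepared in Mannitol Buffer pH 7.2-7.4. Incubated 1 hour at 4° C to equilibrium, filtered, washed with ice-cold 50 mM Tris pH 7.5, counted by liquid scintillation. Ki values are means of two determinations.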

[2] = target: human GABAA α2β2γ1 receptor (Homo sapiens (Human), UniProt P47869+Q8N1C3); assay: Radioligand binding assay, [3H]RO7239181 competition, γ1-containing GABAA subtypes; settings: for Ki: HEK293F membranes, [3H]RO7239181 20-30 nM, mean of two determinations, read-out: Ki h-GABAA α2β2γ1; for γ2/γ1 Selectivity Ratio: Ki α1β3γ2 (nM)/Ki α2β2γ1 (nM); for LogSel: Log[Ki α1β3γ2 (nM)/Ki α2β2γ1 (nM)]
[3] = target: human GABAA α1β2γ1 receptor (Homo sapiens (Human), UniProt P14867+Q8N1C3); assay: as above; settings: HEK293F membranes, [3H]RO7239181 20-30 nM, mean of two determinations
[4] = target: human GABAA α5β2γ1 receptor (Homo sapiens (Human), UniProt P31644+Q8N1C3); assay: as above; settings: HEK293F membranes, mean of two determinations
Description: The affinity of compounds at GABAA γ1 subunit-containing receptors was measured by competition for [^3H]RO7239181 (67.3 Ci/mmol; Roche) binding to membranes from HEK293F cells (ThermoFisher R79007) expressing human (transiently transfected) receptors of composition α5β2γ1, α2β2γ1, α1β2γ1. For better protein expression of the α2 subunit-containing receptors, the 28 amino acid long signal peptide (Met1 to Ala28) of the human GABAA α2 subunit was substituted by the 31 amino acid long signal peptide (Met1 to Ser31) of human GABAA α5 subunit.
Harvested pellets from HEK293F cells expressing the different GABAA receptor subtypes were resuspended in Mannitol Buffer pH 7.2-7.4 (Mannitol 0.29M, Triethylamine 10 mM, Acetic acid 10 mM, EDTA 1 mM plus protease inhibitors (20 tablets Complete, Roche Diagnostics Cat. No. 05 056 489 001 per liter)), washed two times and then resuspended at 1:10 to 1:15 dilution in the same buffer. Cell disruption was performed by stirring the suspension in a Parr vessel #4637 at 435 psi for 15 minutes, and then the suspensions were centrifuged at 1000×g for 15 minutes at 4° C. (Beckman Avanti J-HC; rotor JS)-4.2). The supernatant (S1) was transferred in a 21 Schott flask and the pellet (P1) was resuspended with Mannitol Buffer up to 175 ml. The resuspended pellet was transferred into a 250 ml Corning centrifugal beaker and centrifuged at 1500×g for 10 minutes at 4° C. (Beckman Avanti J-HC; rotor JS)-4.2). The supernatant (S1) was then transferred in the 21 Schott flask and the pellet was discarded. The supernatants (S1) were centrifuged in 500 ml Beckman polypropylene centrifugal beaker at 15,000×g for 30 minutes at 4° C. (Beckman Avanti J-20 XP; rotor JLA-10.500). The pellet (P2) was resuspended with Mannitol Buffer 1:1 and frozen at −80° C. The supernatant (S2) was centrifuged in 100 ml Beckman polypropylene centrifugal tubes at 48000×g for 50 minutes at […] (Beckman Avanti J-20 XP; rotor JA-18). The supernatant (S3) was discarded and the pellet (P3) was resuspended with 1:1 Mannitol Buffer. The P2 and P3 protein concentration was determined with the BIORAD Standard assay method with bovine serum albumin as standard and measured on the NANO-Drop 1000. The membrane suspension was aliquots (500 μl per tube) and stored at −80° C. until required.
Membrane homogenates were resuspended and polytronised (Polytron PT1200E Kinematica AG) in Potassium Phosphate 10 mM, KCl 100 mM binding buffer at pH 7.4 to a final assay concentration determined with a previous experiment.
Radioligand binding assays were carried out in a volume of 200 µL (96-well plates) which contained 100 μL of cell membranes, [^3H]RO7239181 at a concentration of 1.5 nM (α5β2γ1) or 20-30 nM (α1β2γ1, 2β2γ1) and the test compound in the range of [0.3-10000]×10^−9 M. Nonspecific binding was defined by 10×10^−6 (α5β2γ1) and 30×10^−6 M RO7235136 and typically represented less than 5% (α5β2γ1) and less than 20% (α1β2γ1, α2β2γ1) of the total binding. Assays were incubated to equilibrium for 1 hour at 4° C. and then, membranes were filtered onto unifilter (96-well white microplate with bonded GF/C filters preincubated 20-50 minutes in 0.3% Polyethylenimine) with a Filtermate 196 harvester (Packard BioScience) and washed 4 times with cold Potassium Phosphate 10 mM pH 7.4, KCl 100 mM binding buffer. After drying, filter-retained radioactivity was detected by liquid scintillation counting. K, values were calculated using Excel-Fit (Microsoft) and are the means of two determinations.
Representative test results, obtained by the above described assay measuring binding affinity to HEK293 cells expressing human (h) receptors, are shown in the Table 1.

| Compound | Ki [1] [nM] | Ki [2] [nM] | γ2/γ1 Selectivity Ratio [2] | LogSel [2] | Ki [3] [nM] | Ki [4] [nM] |
| --- | --- | --- | --- | --- | --- | --- |
| Cc1nnc2n1-c1ccc(Br)c(Cl)c1C(c1ncccc1F)=N[C@H]2C [Example 85, (4S)-8-bromo-7-chloro-6-(3-fluoro-2-pyridyl)-1,4-dimethyl-4H-[1,2,4]triazolo[4,3-a][1,4]benzodiazepine] | 705 | 53 | 13.3 | 1.12 | 63.6 | 3.3 |
| Cc1ccc(-c2nnc3n2-c2ccc(Cl)c(Cl)c2C(c2c(F)cccc2F)=N[C@H]3C)nn1 [Example 86, (4S)-7,8-dichloro-6-(2,6-difluorophenyl)-4-methyl-1-(6-methylpyridazin-3-yl)-4H-[1,2,4]triazolo[4,3-a][1,4]benzodiazepine] | 860 | 4.4 | 195.1 and 195 | 2.29 and 2.3 | 5.9 | 1.4 |
| Cc1cc(-c2nnc3n2-c2ccc(Cl)c(Cl)c2C(c2c(F)cccc2F)=N[C@H]3C)on1 [Example 87, 5-[(4S)-7,8-dichloro-6-(2,6-difluorophenyl)-4-methyl-4H-[1,2,4]triazolo[4,3-a][1,4]benzodiazepin-1-yl]-3-methyl-isoxazole] | 532 | 7.5 | 70.9 | 1.85 | 8 | 2.1 |
| Cc1ccc(-c2nnc3n2-c2ccc(Cl)c(Br)c2C(c2c(F)cccc2F)=N[C@H]3C)nn1 [Example 88, (4S)-7-bromo-8-chloro-6-(2,6-difluorophenyl)-4-methyl-1-(6-methylpyridazin-3-yl)-4H-[1,2,4]triazolo[4,3-a][1,4]benzodiazepine] | 1450 | 10.9 | 133.6 | 2.13 | 34.5 | 3.6 |
| C[C@@H]1N=C(c2c(F)cccc2F)c2c(ccc(Cl)c2Br)-n2c1n[nH]c2=O [Example 89, (4S)-7-bromo-8-chloro-6-(2,6-difluorophenyl)-4-methyl-2,4-dihydro-[1,2,4]triazolo[4,3-a][1,4]benzodiazepin-1-one] | 1460 | 77 | 19.0 | 1.28 | 106 | 4.3 |
| Cc1nnc2n1-c1ccc(C(F)(F)F)c(Cl)c1C(c1c(F)cccc1F)=N[C@H]2C [Example 92, (4S)-7-chloro-6-(2,6-difluorophenyl)-1,4-dimethyl-8-(trifluoromethyl)-4H-[1,2,4]triazolo[4,3-a][1,4]benzodiazepine] | 2230 | 21.9 | 102.0 | 2.01 | 48.3 | 1.8 |
| Cc1nnc2n1-c1ccc(C(C)(F)F)c(Cl)c1C(c1c(F)cccc1F)=N[C@H]2C [Example 93, (4S)-7-chloro-8-(1,1-difluoroethyl)-6-(2,6-difluorophenyl)-1,4-dimethyl-4H-[1,2,4]triazolo[4,3-a][1,4]benzodiazepine] | 5960 | 39.1 | 152.1 | 2.18 | 85.1 | 3.1 |
| Cc1cc(-c2nnc3n2-c2ccc(Cl)c(Cl)c2C(c2c(F)cccc2F)=N[C@H]3C)ncn1 [Example 94, (4S)-7,8-dichloro-6-(2,6-difluorophenyl)-4-methyl-1-(6-methylpyrimidin-4-yl)-4H-[1,2,4]triazolo[4,3-a][1,4]benzodiazepine] | 609 | 8 | 76.4 | 1.88 | 10.3 | 2 |
| Cc1nccc(-c2nnc3n2-c2ccc(Cl)c(Cl)c2C(c2c(F)cccc2F)=N[C@H]3C)n1 [Example 95, (4S)-7,8-dichloro-6-(2,6-difluorophenyl)-4-methyl-1-(2-methylpyrimidin-4-yl)-4H-[1,2,4]triazolo[4,3-a][1,4]benzodiazepine] | 466 | 14.2 | 32.7 | 1.51 | 24.7 | 1.5 |
| Cc1cc(-c2nnc3n2-c2ccc(Cl)c(Cl)c2C(c2c(F)cccc2F)=N[C@H]3C)nc(C)n1 [Example 96, (4S)-7,8-dichloro-6-(2,6-difluorophenyl)-1-(2,6-dimethylpyrimidin-4-yl)-4-methyl-4H-[1,2,4]triazolo[4,3-a][1,4]benzodiazepine] | 473 | 13.9 | 34.1 | 1.53 | 27.9 | 3 |
| Cc1ccc2c(c1Cl)C(c1c(F)cccc1F)=N[C@@H](C)c1nnc(C)n1-2 [Example 97, (4S)-7-chloro-6-(2,6-difluorophenyl)-1,4,8-trimethyl-4H-[1,2,4]triazolo[4,3-a][1,4]benzodiazepine] | 425 | 27.1 | 15.7 | 1.19 | 33.6 | 2.5 |
| CC[C@@H]1N=C(c2c(F)cccc2F)c2c(ccc(Br)c2Cl)-n2c(C)nnc21 [Example 98, (4S)-8-bromo-7-chloro-6-(2,6-difluorophenyl)-4-ethyl-1-methyl-4H-[1,2,4]triazolo[4,3-a][1,4]benzodiazepine] | 1460 | 72 | 20.3 | 1.31 | 57.6 | 4.4 |
| Cc1nnc2n1-c1ccc(C(F)F)c(Cl)c1C(c1c(F)cccc1F)=N[C@H]2C [Example 99, (4S)-7-chloro-8-(difluoromethyl)-6-(2,6-difluorophenyl)-1,4-dimethyl-4H-[1,2,4]triazolo[4,3-a][1,4]benzodiazepine] | 2020 | 55.4 | 36.4 | 1.56 | 63.4 | 3.2 |
| COC[C@@H]1N=C(c2c(F)cccc2F)c2c(ccc(Br)c2Cl)-n2c(C)nnc21 [Example 100, (4R)-8-bromo-7-chloro-6-(2,6-difluorophenyl)-4-(methoxymethyl)-1-methyl-4H-[1,2,4]triazolo[4,3-a][1,4]benzodiazepine] | 288 | 19.8 | 14.6 | 1.16 | 34 | 3.4 |
| Cc1nnc2n1-c1ccc(Br)c(Cl)c1C(c1c(F)cccc1F)=N[C@H]2CO [Example 101, [(4R)-8-bromo-7-chloro-6-(2,6-difluorophenyl)-1-methyl-4H-[1,2,4]triazolo[4,3-a][1,4]benzodiazepin-4-yl]methanol] | 495 | 26.4 | 18.8 | 1.27 | 14.3 | 1 |
